How the values were obtained:
Format in all cases: physicochemical
[1] = Stability study I (with dextrose): accelerated stability study
Experimental: Testing of the chemical degradation was performed in an accelerated stability study setup applying heat as an accelerator/stressor. An Arrhenius analysis was carried out providing an API half-life and a degradation rate at lower temperatures. Physical stability was evaluated at the desired storage temperature (2-8° C.); a benchmark/reference condition was likewise included in the study. The setup of the study is specified below:
Accelerated stability study: 50° C., 60° C., 65° C., 70° C., 75° C.,
Accelerated stability study: initial, 2, 6, 9, 14 days,
appearance, pH, c(BCV) recovery (HPLC), purity (HPLC), and liquid particle counting (physical degradation and benchmark stability study),
The stability testing results (accelerated conditions), i.e., the changes of pH and trends of brincidofovir recovery over the course of the stability study are summarized in Table 8 and Table 9 for the formulations at 10 mg/mL and 15 mg/mL respectively.

[2] = Sterilization filter compatibility
Experimental: Formulations of the disclosure were evaluated for sterilization filter compatibility. Aliquots of a testing brincidofovir formulation were filtered through the corresponding syringe filters as follows:
A: Filter: 0.2 μm, 25 mm, syringe filter, Supor® membrane (PES), sterile; testing solution: 10 mg/mL brincidofovir, 200 mM sodium phosphate, pH=8.0; testing volume: 10 mL. B: Filter: 0.2 μm, 25 mm, syringe filter, Posidyne® membrane, sterile; testing solution: 10 mg/mL brincidofovir, 200 mM sodium phosphate, pH=8.0; testing volume: 10 mL. C: Filter: 0.22 μm, 33 mm, syringe filter, Durapore® PVDF membrane, γ-irradiated; testing solution: […] brincidofovir, 4 mM sodium phosphate, pH-8, approx. 5% dextrose (50× dilution of 10 mg/mL brincidofovir, 200 mM sodium phosphate, pH=8.0 with 5% dextrose solution; testing volume: 50 mL.
The first and last 10% of the filtrate were collected. Samples of the collected filtrates, along with samples of the pre filtration formulation, were assessed for their appearance, pH, and c(BCV).

[3] = Clinical infusion system compatibility
Experimental: The testing procedure can be summarized as follows: • 1. […] The tested infusion system was attached to the infusion bag and manually filled with solution from the infusion bag. Approximately 1 mL (triplicates) of the testing solution was collected as an end-of-line sample for analysis (t0, eol). • 4. The testing infusion system was shut off, and stored at ambient conditions until the next time point. […] B Braun, Rate Flow® regulator IV set). […] The infusion systems were then attached to the infusion bag and manually filled with solution from the infusion bag. Aliquots were collected as an end-of-line sample for analysis (t0, eol). The IV lines were closed between time points with the infusate resting within the infusion system and stored at ambient temperature. At testing time points, approximately 17 mL (approx. volume of the IV system) of infusate solution were drained, which led to a replacement of the solution in the IV system from the bag reservoir. Following this replacement, another end-of-line sample was collected for the assessments (t10 min, eol, t3 h, eol, and t6 h, eol). The samples were evaluated for appearance, pH, and brincidofovir recovery.

[4] = PES filter membrane, first 10% filtrate volume
[5] = PES filter membrane, last 10% filtrate volume
[6] = PES filter membrane, pre filtration
[7] = PVDF filter membrane, first 10% filtrate volume
[8] = PVDF filter membrane, last 10% filtrate volume
[9] = PVDF filter membrane, pre filtration
[10] = Posidyne filter membrane, first 10% filtrate volume
[11] = Posidyne filter membrane, last 10% filtrate volume
[12] = Posidyne filter membrane, pre filtration
[13] = B. Braun, 0.1 mg/mL, t10 min, eol
[14] = B. Braun, 1.0 mg/mL, t10 min, eol
[15] = Baxter, 0.1 mg/mL, t10 min, eol
[16] = Baxter, 1.0 mg/mL, t10 min, eol

For `CCCCCCCCCCCCCCCCOCCCOP(=O)(O)CO[C@H](CO)Cn1ccc(N)nc1=O` [Brincidofovir], the “Degradation of brincidofovir over two weeks” value ([1]; 50 °C) was 16%, the “Degradation of brincidofovir over two weeks” value ([1]; 75 °C) was 22% and the Impurities ([1]; 75 °C station, both starting concentrations) was “up to 16%”. The Appearance [2, 4] was “Clear,”, the “Measured pH” value [2, 4] was 8.0 and the “Observed c(BCV)” value [2, 4] was 9.8 mg/mL. The Appearance [2, 5] was “Clear,”, the “Measured pH” value [2, 5] was 8.0 and the “Observed c(BCV)” value [2, 5] was 9.8 mg/mL. For the same compound, the Appearance [2, 6] was “Clear,”, the “Measured pH” value [2, 6] was 8.1 and the “Observed c(BCV)” value [2, 6] was 9.9 mg/mL. For the same compound, the Appearance [2, 7] was “Clear,”, the “Measured pH” value [2, 7] was 8.1 and the “Observed c(BCV)” value [2, 7] was 0.20 mg/mL. For the same compound, the Appearance [2, 8] was “Clear,”, the “Measured pH” value [2, 8] was 8.1 and the “Observed c(BCV)” value [2, 8] was 0.20 mg/mL. The Appearance [2, 9] was “Clear,”, the “Measured pH” value [2, 9] was 8.0 and the “Observed c(BCV)” value [2, 9] was 0.20 mg/mL. For the same compound, the Appearance [2, 10] was “Clear,”, the “Measured pH” value [2, 10] was 8.0 and the “Observed c(BCV)” value [2, 10] was 9.7 mg/mL. For the same compound, the Appearance [2, 11] was “Clear,”, the “Measured pH” value [2, 11] was 8.0 and the “Observed c(BCV)” value [2, 11] was 9.8 mg/mL. For the same compound, the Appearance [2, 12] was “Clear,”, the “Measured pH” value [2, 12] was 8.1 and the “Observed c(BCV)” value [2, 12] was 9.9 mg/mL. For the same compound, the Appearance ([3]; B. Braun, 0.1 mg/mL, t0, bag) was “Clear, colorless”, the “Measured pH” value ([3]; B. Braun, 0.1 mg/mL, t0, bag) was 7.8 and the “Observed c(BCV)” value ([3]; B. Braun, 0.1 mg/mL, t0, bag) was 0.091 mg/mL. For the same compound, the Appearance ([3]; B. Braun, 0.1 mg/mL, t0, eol) was “Clear, colorless”, the “Measured pH” value ([3]; B. Braun, 0.1 mg/mL, t0, eol) was 7.7 and the “Observed c(BCV)” value ([3]; B. Braun, 0.1 mg/mL, t0, eol) was 0.086 mg/mL. The Appearance [3, 13] was “Clear, colorless”, the “Measured pH” value [3, 13] was 7.7 and the “Observed c(BCV)” value [3, 13] was 0.091 mg/mL. For the same compound, the Appearance ([3]; B. Braun, 0.1 mg/mL, t3 h, eol) was “Clear, colorless”, the “Measured pH” value ([3]; B. Braun, 0.1 mg/mL, t3 h, eol) was 7.7 and the “Observed c(BCV)” value ([3]; B. Braun, 0.1 mg/mL, t3 h, eol) was 0.090 mg/mL. For the same compound, the Appearance ([3]; B. Braun, 0.1 mg/mL, t6 h, eol) was “Clear, colorless”, the “Measured pH” value ([3]; B. Braun, 0.1 mg/mL, t6 h, eol) was 7.7 and the “Observed c(BCV)” value ([3]; B. Braun, 0.1 mg/mL, t6 h, eol) was 0.091 mg/mL. The “Observed c(BCV)” value ([3]; B. Braun, 0.1 mg/mL, t−24 h, bag) was 0.090 mg/mL, the Appearance ([3]; B. Braun, 1.0 mg/mL, t0, bag) was “Clear, colorless” and the “Measured pH” value ([3]; B. Braun, 1.0 mg/mL, t0, bag) was 8.1. The “Observed c(BCV)” value ([3]; B. Braun, 1.0 mg/mL, t0, bag) was 0.86 mg/mL, the Appearance ([3]; B. Braun, 1.0 mg/mL, t0, eol) was “Clear, colorless” and the “Measured pH” value ([3]; B. Braun, 1.0 mg/mL, t0, eol) was 8.1. The “Observed c(BCV)” value ([3]; B. Braun, 1.0 mg/mL, t0, eol) was 0.86 mg/mL, the Appearance [3, 14] was “Clear, colorless” and the “Measured pH” value [3, 14] was 8.1. The “Observed c(BCV)” value [3, 14] was 0.86 mg/mL, the Appearance ([3]; B. Braun, 1.0 mg/mL, t3 h, eol) was “Clear, colorless” and the “Measured pH” value ([3]; B. Braun, 1.0 mg/mL, t3 h, eol) was 8.1. For the same compound, the “Observed c(BCV)” value ([3]; B. Braun, 1.0 mg/mL, t3 h, eol) was 0.86 mg/mL, the Appearance ([3]; B. Braun, 1.0 mg/mL, t6 h, eol) was “Clear, colorless” and the “Measured pH” value ([3]; B. Braun, 1.0 mg/mL, t6 h, eol) was 8.1. The “Observed c(BCV)” value ([3]; B. Braun, 1.0 mg/mL, t6 h, eol) was 0.86 mg/mL, the “Observed c(BCV)” value ([3]; B. Braun, 1.0 mg/mL, t−24 h, bag) was 0.86 mg/mL and the Appearance ([3]; Baxter, 0.1 mg/mL, t0, bag) was “Clear, colorless”. For the same compound, the “Measured pH” value ([3]; Baxter, 0.1 mg/mL, t0, bag) was 7.7, the “Observed c(BCV)” value ([3]; Baxter, 0.1 mg/mL, t0, bag) was 0.091 mg/mL and the Appearance ([3]; Baxter, 0.1 mg/mL, t0, eol) was “Clear, colorless”. For the same compound, the “Measured pH” value ([3]; Baxter, 0.1 mg/mL, t0, eol) was 7.7, the “Observed c(BCV)” value ([3]; Baxter, 0.1 mg/mL, t0, eol) was 0.088 mg/mL and the Appearance [3, 15] was “Clear, colorless”. For the same compound, the “Measured pH” value [3, 15] was 7.7, the “Observed c(BCV)” value [3, 15] was 0.092 mg/mL and the Appearance ([3]; Baxter, 0.1 mg/mL, t3 h, eol) was “Clear, colorless”. The “Measured pH” value ([3]; Baxter, 0.1 mg/mL, t3 h, eol) was 7.7, the “Observed c(BCV)” value ([3]; Baxter, 0.1 mg/mL, t3 h, eol) was 0.091 mg/mL and the Appearance ([3]; Baxter, 0.1 mg/mL, t6 h, eol) was “Clear, colorless”. The “Measured pH” value ([3]; Baxter, 0.1 mg/mL, t6 h, eol) was 7.7, the “Observed c(BCV)” value ([3]; Baxter, 0.1 mg/mL, t6 h, eol) was 0.092 mg/mL and the “Observed c(BCV)” value ([3]; Baxter, 0.1 mg/mL, t−24 h, bag) was 0.090 mg/mL. For the same compound, the Appearance ([3]; Baxter, 1.0 mg/mL, t0, bag) was “Clear, colorless”, the “Measured pH” value ([3]; Baxter, 1.0 mg/mL, t0, bag) was 8.1 and the “Observed c(BCV)” value ([3]; Baxter, 1.0 mg/mL, t0, bag) was 0.86 mg/mL. The Appearance ([3]; Baxter, 1.0 mg/mL, t0, eol) was “Clear, colorless”, the “Measured pH” value ([3]; Baxter, 1.0 mg/mL, t0, eol) was 8.1 and the “Observed c(BCV)” value ([3]; Baxter, 1.0 mg/mL, t0, eol) was 0.85 mg/mL. The Appearance [3, 16] was “Clear, colorless”, the “Measured pH” value [3, 16] was 8.1 and the “Observed c(BCV)” value [3, 16] was 0.86 mg/mL. The Appearance ([3]; Baxter, 1.0 mg/mL, t3 h, eol) was “Clear, colorless”, the “Measured pH” value ([3]; Baxter, 1.0 mg/mL, t3 h, eol) was 8.1 and the “Observed c(BCV)” value ([3]; Baxter, 1.0 mg/mL, t3 h, eol) was 0.86 mg/mL. For the same compound, the Appearance ([3]; Baxter, 1.0 mg/mL, t6 h, eol) was “Clear, colorless”, the “Measured pH” value ([3]; Baxter, 1.0 mg/mL, t6 h, eol) was 8.1 and the “Observed c(BCV)” value ([3]; Baxter, 1.0 mg/mL, t6 h, eol) was 0.86 mg/mL. The “Observed c(BCV)” value ([3]; Baxter, 1.0 mg/mL, t−24 h, bag) was 0.85 mg/mL.

— US20170368082A1, “FORMULATIONS OF BRINCIDOFOVIR” (priority 2016, published 2017)
